Source: patent US20190227066A1, “COMPOSITIONS AND METHODS FOR DETECTING CANCER CELLS IN A TISSUE SAMPLE” (ISI Life Sciences, Inc., priority 2016, published 2019)

Test system: SDOV3 cells (an ovarian cancer cell line)
Assay: Detection of ovarian cancer cells: uptake and intracellular deacylation, imaged by fluorescence microscopy
Format: cell-based
Details: 50 micromolar, folate-free medium (no FBS), washed with HBSS, 20× immersion objective
Description: Compound 24 and comparative compound A were evaluated for their ability to be absorbed by cancer cells and then, in the case of compound 24, deacylated by intracellular esterases so as to regenerate a fluorescent structure. Specifically, approximately 500,000 SDOV3 cells (an ovarian cancer cell line) were seeded into separate 35 mm culture dishes containing a folate-free growth medium (RPMI+10% FBS). The next day, the medium was replaced with a folate-free medium (no FBS). In one culture dish, the medium was supplemented with 25 micromolar of compound 24; and, in another culture dish, the medium was supplemented with 50 micromolar of comparative compound A. After incubation, the cells were washed with HBSS (Hank's balanced salt solution) to remove unbound compound. The cells were then imaged with a 20× immersion objective on a standard upright fluorescent microscope. […] FIG. 1 illustrates a picture showing the fluorescence generated. Note that only the cancer cells evidenced fluorescence and that the solution remained non-fluorescent. […] This evidences that that composition was not suitable for use in the methods described herein.

Question: With Nc1nc2ncc(CNc3ccc(C(=O)NC(CCC(=O)NCCCCCNC(=O)c4cccc(-c5c6ccc(=O)cc-6oc6cc(O)ccc56)c4C(=O)O)C(=O)O)cc3)nc2c(=O)[nH]1 (stereo not shown) [comparative compound A] as the compound, how does the “fluorescent signal of the cells” value read?
Answer: burst of fluorescence but immediately the fluorescence was bleached
